Values quoted from earlier work, collected in article PMC8398847, “Isavuconazole: Thermodynamic Evaluation of Processes Sublimation, Dissolution and Partition in Pharmaceutically Relevant Media” (Molecules, 2021).
Values joined by “and” are separate entries in the source; they are usually repeats but may differ in a detail not shown here. Equal entries are not always repeated.

Conditions: 298.15 K, cited from earlier work; for sublimation Gibbs energy (kJ∙mol-1, Table S2) / sublimation enthalpy (first kJ∙mol-1 column, Table S2): bicalutamide cluster; for sublimation Gibbs energy (Table S1) / sublimation enthalpy (Table S1): IVZ cluster, ref Table S1 [1]-[16]

2-phenylcarbamoyl-3-methylquinoxaline-N-oxide
sublimation Gibbs energy (kJ∙mol-1, Table S2): 69.2 kJ/mol
sublimation enthalpy (first kJ∙mol-1 column, Table S2): 145.1 kJ/mol

CC(O)(c1ccccc1)c1ccccc1 [1,1-diphenylethanol]
sublimation Gibbs energy (Table S1): 9.35 kcal/mol
sublimation enthalpy (Table S1): 25.1 kcal/mol
sublimation Gibbs energy (kJ∙mol-1, Table S2): 39.1 kJ/mol
sublimation enthalpy (first kJ∙mol-1 column, Table S2): 105 kJ/mol

Fc1ccc(-n2cccc2)cc1 [1-(4-fluorophenyl)pyrrole]
sublimation Gibbs energy (kJ∙mol-1, Table S2): 25.4 kJ/mol
sublimation enthalpy (first kJ∙mol-1 column, Table S2): 78.9 kJ/mol

CC(O)Cc1nsc(Nc2ccc(F)cc2)n1 (centres unmarked) [1-[5-(4-Fluoro-phenylamino)-[1,2,4]thiadiazol-3-yl]-propan-2-ol]
sublimation Gibbs energy (kJ∙mol-1, Table S2): 59.1 kJ/mol
sublimation enthalpy (first kJ∙mol-1 column, Table S2): 124.8 kJ/mol

CC(C)(O)c1ccccc1 [1-methyl-1-phenylethanol]
sublimation Gibbs energy (Table S1): 5.26 kcal/mol
sublimation enthalpy (Table S1): 19.7 kcal/mol
sublimation Gibbs energy (kJ∙mol-1, Table S2): 22 kJ/mol
sublimation enthalpy (first kJ∙mol-1 column, Table S2): 82.3 kJ/mol

CC(=O)Nc1ccccc1O [2'-Hydroxyacetanilide]
sublimation Gibbs energy (kJ∙mol-1, Table S2): 52.8 kJ/mol
sublimation enthalpy (first kJ∙mol-1 column, Table S2): 121.8 kJ/mol

Fc1ccccc1-c1ccccc1F [2,2'-difluorobiphenyl]
sublimation Gibbs energy (Table S1): 7.72 kcal/mol
sublimation enthalpy (Table S1): 22.7 kcal/mol
sublimation Gibbs energy (kJ∙mol-1, Table S2): 32.3 kJ/mol
sublimation enthalpy (first kJ∙mol-1 column, Table S2): 95 kJ/mol

CC(=O)Nc1ccccc1C(=O)O [2-(acetylamino)-Benzoic acid]
sublimation Gibbs energy (kJ∙mol-1, Table S2): 54.4 kJ/mol
sublimation enthalpy (first kJ∙mol-1 column, Table S2): 115.5 kJ/mol

NC(=O)c1ccccc1F [2-Fluorobenzamide]
sublimation Gibbs energy (kJ∙mol-1, Table S2): 35.8 kJ/mol
sublimation enthalpy (first kJ∙mol-1 column, Table S2): 95.4 kJ/mol

N#Cc1ccc2ccccc2c1 [2-Naphthalenecarbonitrile]
sublimation Gibbs energy (Table S1): 8.08 kcal/mol
sublimation enthalpy (Table S1): 22 kcal/mol

O=C(O)c1ccccc1F [2-fluorobenzoic acid]
sublimation Gibbs energy (Table S1): 8.48 kcal/mol
sublimation enthalpy (Table S1): 22.6 kcal/mol
sublimation Gibbs energy (kJ∙mol-1, Table S2): 35.5 kJ/mol
sublimation enthalpy (first kJ∙mol-1 column, Table S2): 94.4 kJ/mol

CC(=O)Nc1cccc(O)c1 [3-Acetamidophenol]
sublimation Gibbs energy (kJ∙mol-1, Table S2): 56.4 kJ/mol
sublimation enthalpy (first kJ∙mol-1 column, Table S2): 111 kJ/mol

NC(=O)c1cccc(F)c1 [3-Fluorobenzamide]
sublimation Gibbs energy (kJ∙mol-1, Table S2): 42.5 kJ/mol
sublimation enthalpy (first kJ∙mol-1 column, Table S2): 104.1 kJ/mol

N#Cc1cccc(F)c1 [3-Fluorobenzonitrile]
sublimation Gibbs energy (Table S1): 3.78 kcal/mol
sublimation enthalpy (Table S1): 15.6 kcal/mol

O=[N+]([O-])c1cccc(F)c1 [3-Fluoronitrobenzene]
sublimation Gibbs energy (kJ∙mol-1, Table S2): 17.1 kJ/mol
sublimation enthalpy (first kJ∙mol-1 column, Table S2): 72.3 kJ/mol

O=C(O)c1cccc(F)c1 [3-fluorobenzoic acid]
sublimation Gibbs energy (Table S1): 8.22 kcal/mol
sublimation enthalpy (Table S1): 22.4 kcal/mol
sublimation Gibbs energy (kJ∙mol-1, Table S2): 34.4 kJ/mol
sublimation enthalpy (first kJ∙mol-1 column, Table S2): 93.6 kJ/mol

Cc1ccccc1NC(=O)c1c(C)[n+]([O-])c2ccccc2[n+]1[O-] [3-methyl-N-(2-methylphenyl)-2-quinoxalinecarboxamide-1,4-dioxide]
sublimation Gibbs energy (kJ∙mol-1, Table S2): 71.9 kJ/mol
sublimation enthalpy (first kJ∙mol-1 column, Table S2): 154.8 kJ/mol

CC(=O)Nc1ccc(Br)cc1 [4'-Bromoacetanilide]
sublimation Gibbs energy (kJ∙mol-1, Table S2): 51.2 kJ/mol
sublimation enthalpy (first kJ∙mol-1 column, Table S2): 113.4 kJ/mol

CC(=O)Nc1ccc(Cl)cc1 [4'-Chloroacetanilide]
sublimation Gibbs energy (kJ∙mol-1, Table S2): 50.1 kJ/mol
sublimation enthalpy (first kJ∙mol-1 column, Table S2): 113.8 kJ/mol

Fc1ccc(-c2ccc(F)cc2)cc1 [4,4'-difluorobiphenyl]
sublimation Gibbs energy (Table S1): 7.22 kcal/mol
sublimation enthalpy (Table S1): 21.8 kcal/mol
sublimation Gibbs energy (kJ∙mol-1, Table S2): 30.2 kJ/mol
sublimation enthalpy (first kJ∙mol-1 column, Table S2): 91.2 kJ/mol

CNc1ccc(C(=O)O)cc1 [4-(methylamino)benzoic acid]
sublimation Gibbs energy (kJ∙mol-1, Table S2): 55.3 kJ/mol
sublimation enthalpy (first kJ∙mol-1 column, Table S2): 123.9 kJ/mol

N#Cc1ccc(Br)cc1 [4-Bromobenzonitrile]
sublimation Gibbs energy (Table S1): 6.81 kcal/mol
sublimation enthalpy (Table S1): 19.3 kcal/mol

N#Cc1ccc(C(=O)O)cc1 [4-Cyanobenzoic acid]
sublimation Gibbs energy (kJ∙mol-1, Table S2): 50.7 kJ/mol
sublimation enthalpy (first kJ∙mol-1 column, Table S2): 112.8 kJ/mol

NC(=O)c1ccc(F)cc1 [4-Fluorobenzamide]
sublimation Gibbs energy (kJ∙mol-1, Table S2): 43.2 kJ/mol
sublimation enthalpy (first kJ∙mol-1 column, Table S2): 102.8 kJ/mol

N#Cc1ccc(F)cc1 [4-Fluorobenzonitrile]
sublimation Gibbs energy (Table S1): 4.21 kcal/mol
sublimation enthalpy (Table S1): 16.2 kcal/mol

O=[N+]([O-])c1ccc(F)cc1 [4-Fluoronitrobenzene]
sublimation Gibbs energy (kJ∙mol-1, Table S2): 18.9 kJ/mol
sublimation enthalpy (first kJ∙mol-1 column, Table S2): 70.9 kJ/mol

Oc1ccc(F)cc1 [4-Fluorophenol]
sublimation Gibbs energy (Table S1): 4.76 kcal/mol
sublimation enthalpy (Table S1): 17.7 kcal/mol
sublimation Gibbs energy (kJ∙mol-1, Table S2): 19.9 kJ/mol
sublimation enthalpy (first kJ∙mol-1 column, Table S2): 74.1 kJ/mol

N#Cc1ccc(I)cc1 [4-Iodobenzonitrile]
sublimation Gibbs energy (Table S1): 7.84 kcal/mol
sublimation enthalpy (Table S1): 21 kcal/mol

O=C(O)c1ccc(F)cc1 [4-fluorobenzoic acid]
sublimation Gibbs energy (Table S1): 8.8 kcal/mol
sublimation enthalpy (Table S1): 22.3 kcal/mol
sublimation Gibbs energy (kJ∙mol-1, Table S2): 36.8 kJ/mol
sublimation enthalpy (first kJ∙mol-1 column, Table S2): 93.1 kJ/mol

CC(N)=O [Acetamide]
sublimation Gibbs energy (kJ∙mol-1, Table S2): 40.5 kJ/mol
sublimation enthalpy (first kJ∙mol-1 column, Table S2): 99.8 kJ/mol

CC(O)(CS(=O)(=O)c1ccc(F)cc1)C(=O)Nc1ccc(C#N)c(C(F)(F)F)c1 (centres unmarked) [Bicalutamide]
sublimation Gibbs energy (Table S1): 15.2 kcal/mol
sublimation enthalpy (Table S1): 29.8 kcal/mol
sublimation Gibbs energy (kJ∙mol-1, Table S2): 63.7 kJ/mol
sublimation enthalpy (first kJ∙mol-1 column, Table S2): 124.7 kJ/mol

O=C(O)c1cc(-c2ccc(F)cc2F)ccc1O [Diflunisal (Form A), Diflunisal]
sublimation Gibbs energy (kJ∙mol-1, Table S2): 57.6 kJ/mol
sublimation enthalpy (first kJ∙mol-1 column, Table S2): 120.1 kJ/mol

O=C(O)c1ccccc1Nc1cccc(C(F)(F)F)c1 [Flufenamic acid]
sublimation Gibbs energy (kJ∙mol-1, Table S2): 54.3 kJ/mol
sublimation enthalpy (first kJ∙mol-1 column, Table S2): 121.2 kJ/mol

CC(C(=O)O)c1ccc(-c2ccccc2)c(F)c1 (centres unmarked) [Flurbiprofen]
sublimation Gibbs energy (Table S1): 12.7 kcal/mol
sublimation enthalpy (Table S1): 26.34 kcal/mol

Cc1cccc(Nc2ccccc2C(=O)O)c1C [Mefenamic Acid]
sublimation Gibbs energy (kJ∙mol-1, Table S2): 59.2 kJ/mol
sublimation enthalpy (first kJ∙mol-1 column, Table S2): 136.3 kJ/mol

CC(=O)Nc1ccccc1C [N-(2-methylphenyl)acetamide]
sublimation Gibbs energy (kJ∙mol-1, Table S2): 40.9 kJ/mol
sublimation enthalpy (first kJ∙mol-1 column, Table S2): 97.1 kJ/mol

CC12CC3CC(C)(C1)CC(NS(=O)(=O)c1ccc(C(F)(F)F)cc1)(C3)C2 [N-(3,5-Dimethyl-adamantan-1-yl)-4-trifluoromethyl-benzenesulfonamide]
sublimation Gibbs energy (kJ∙mol-1, Table S2): 49.6 kJ/mol
sublimation enthalpy (first kJ∙mol-1 column, Table S2): 107.7 kJ/mol

CC(=O)Nc1ccc(C)cc1 [N-(4-methylphenyl)acetamide]
sublimation Gibbs energy (kJ∙mol-1, Table S2): 44.5 kJ/mol
sublimation enthalpy (first kJ∙mol-1 column, Table S2): 99 kJ/mol

CC(=O)Nc1cccc2ccccc12 [N-acetyl-1-naphthylamine]
sublimation Gibbs energy (kJ∙mol-1, Table S2): 47.9 kJ/mol
sublimation enthalpy (first kJ∙mol-1 column, Table S2): 94 kJ/mol and 94.1 kJ/mol

c1ccc(CNc2ccccc2)cc1 [N-phenyl benzylamine]
sublimation Gibbs energy (kJ∙mol-1, Table S2): 36.9 kJ/mol
sublimation enthalpy (first kJ∙mol-1 column, Table S2): 104.4 kJ/mol

O=C(O)c1ccccc1Nc1ccccc1 [N-phenyl-Anthranilic acid]
sublimation Gibbs energy (kJ∙mol-1, Table S2): 58.9 kJ/mol
sublimation enthalpy (first kJ∙mol-1 column, Table S2): 126 kJ/mol

O=C(O)c1cccnc1Nc1cccc(C(F)(F)F)c1 [Niflumic acid]
sublimation Gibbs energy (kJ∙mol-1, Table S2): 61.3 kJ/mol
sublimation enthalpy (first kJ∙mol-1 column, Table S2): 130.2 kJ/mol

CC(=O)Nc1ccc(O)cc1 [Paracetamol]
sublimation Gibbs energy (kJ∙mol-1, Table S2): 60 kJ/mol
sublimation enthalpy (first kJ∙mol-1 column, Table S2): 117.9 kJ/mol

CC(=O)NCC(=O)Nc1ccccc1 [acetylglycine anilide]
sublimation Gibbs energy (kJ∙mol-1, Table S2): 59.9 kJ/mol
sublimation enthalpy (first kJ∙mol-1 column, Table S2): 125.4 kJ/mol

NC(=O)c1cccc(N)c1 [m-Aminobenzamide]
sublimation Gibbs energy (kJ∙mol-1, Table S2): 57.5 kJ/mol and 57.8 kJ/mol
sublimation enthalpy (first kJ∙mol-1 column, Table S2): 125.3 kJ/mol and 128.6 kJ/mol

NC(=O)c1ccccc1N [o-Aminobenzamide]
sublimation Gibbs energy (kJ∙mol-1, Table S2): 46.1 kJ/mol
sublimation enthalpy (first kJ∙mol-1 column, Table S2): 106.8 kJ/mol

NC(=O)c1ccc(N)cc1 [p-Aminobenzamide]
sublimation Gibbs energy (kJ∙mol-1, Table S2): 61.7 kJ/mol
sublimation enthalpy (first kJ∙mol-1 column, Table S2): 131.2 kJ/mol

CC(=O)Nc1ccc(C=O)cc1 [p-acetaminobenzaldehyde]
sublimation Gibbs energy (kJ∙mol-1, Table S2): 44.1 kJ/mol
sublimation enthalpy (first kJ∙mol-1 column, Table S2): 99.1 kJ/mol

CC(=O)c1ccc(F)cc1 [p-fluoroacetophenone]
sublimation Gibbs energy (Table S1): 4.21 kcal/mol
sublimation enthalpy (Table S1): 17.1 kcal/mol
